# Patent US20060281735A1, “Antipsychotic combination therapies and compositions of an alpha-2 adrenergic receptor antagonist and an atypical antipsychotic neuroleptic” (priority 2002, published 2006)
# Tests used:
# [1] = test system: α2-adrenergic receptor versus D2 receptor; settings: literature; cited from earlier work
# D2 dopamine receptor = target: T1, D2 dopamine receptor (Homo sapiens, UniProt P14416); settings: at effective antipsychotic treatment; literature; cited from earlier work
# T1 construct: In vivo D2 occupancy can be determined using finctional brain imaging technologies such as Positron Emission Tomography (PET); host or cells: brain of treated patients, in vivo imaging
# T1 sequence (P14416 whole entry): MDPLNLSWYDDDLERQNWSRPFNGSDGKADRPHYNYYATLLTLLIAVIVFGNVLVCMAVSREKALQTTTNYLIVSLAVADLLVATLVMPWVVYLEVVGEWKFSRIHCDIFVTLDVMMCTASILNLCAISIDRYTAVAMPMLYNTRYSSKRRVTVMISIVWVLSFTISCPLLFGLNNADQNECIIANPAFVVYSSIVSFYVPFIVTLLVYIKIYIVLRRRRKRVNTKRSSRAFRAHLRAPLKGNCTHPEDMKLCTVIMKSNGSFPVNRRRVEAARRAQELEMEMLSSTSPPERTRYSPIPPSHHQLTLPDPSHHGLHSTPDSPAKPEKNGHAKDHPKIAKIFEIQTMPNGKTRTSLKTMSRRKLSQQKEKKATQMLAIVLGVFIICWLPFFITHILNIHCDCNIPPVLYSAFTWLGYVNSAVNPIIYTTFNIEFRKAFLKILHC
# α2 receptor = settings: idazoxan; stated with Litman et al. 1996; cited from earlier work
# Wistar rats = experiment: Conditioned avoidance response (CAR) behavior in rats; type: in vivo; settings: rat CAR; 2.5 mg/kg with idazoxan versus about 5 mg/kg alone
# Description: Adult, male Wistar rats, 200-225 g (B & K Universal, Sollentuna, Sweden) were used. The animals were housed under standard laboratory conditions, on a reversed light/dark cycle (lights off 08:00 am), and allowed 1 week of adaptation to laboratory conditions before being used in experiments. Food and water were available ad libitum.
# Rats were trained and tested in a conventional, manually operated two-way active avoidance (shuttlebox) apparatus connected to a high resistance power supply. The box was divided into two compartments of equal size by a partition with one opening. Upon presentation of the 80 dB white noise conditioned stimulus (CS), the animals had 10 seconds to move from one compartment of the shuttlebox into the other. If the rat remained in the same compartment for more than 10 seconds, an intermittent electric shock (approx. 0.2 mA of 0.5-sec duration; intershock interval 2.5 sec), the unconditioned stimulus (UCS), was presented in the grid floor until an escape was performed. […] Intertrial intervals varied at random between 20 and 40 seconds. The following variables were recorded: avoidance (response to CS within 10 sec); escape (response to CS+UCS); escape failures (failure to respond); and intertrial crosses. The animals were trained for 3 consecutive days. Training sessions were run over 15 minutes. […]
# α2 adrenoreceptors = settings: binding studies; cited from earlier work
# α2 autoreceptors = settings: presynaptic level; antagonism of clonidine; cited from earlier work
smiles,measurement,setting,value
Cc1nc2n(c(=O)c1CCN1CCC(c3noc4cc(F)ccc34)CC1)CCCC2 [risperidone],Fold less affinity for the α2 adrenergic receptor than for the dopamine D2 receptor,[1],2-16 fold
same,In vivo D2 occupancy,D2 dopamine receptor,≥ 70%
OCCOCCN1CCN(C2=Nc3ccccc3Sc3ccccc32)CC1 [quetiapine],Fold less affinity for the α2 adrenergic receptor than for the dopamine D2 receptor,[1],6-16 fold
"c1ccc2c(c1)OCC(C1=NCCN1)O2 (racemic) [idazoxan, ±-2-(1,4-benzodioxan-2-yl)-d-imidazoline]",Ki,α2 receptor,~30 nM
Cc1cc2c(s1)Nc1ccccc1N=C2N1CCN(C)CC1 [olanzapine],Reduction of olanzapine dose required for effective antipsychotic effect through adjunct idazoxan,Wistar rats,~50%
O=C1Cc2cc(CCN3CCN(c4nsc5ccccc45)CC3)c(Cl)cc2N1 [ziprasidone],Fold less affinity for the α2 adrenergic receptor than for the dopamine D2 receptor,[1],100 fold
"c1ccc2c(c1)OCC(C1=NCCN1)O2 (single isomer, unassigned; (+)) [(+)-idazoxan]","Potency in inhibiting p-[3H]aminoclonidine binding, times more potent than the other enantiomer",α2 adrenoreceptors,7-8 times
same,"Affinity towards the α2 autoreceptors, times higher than (−) idazoxan",α2 autoreceptors,40 times
